Assay results published in article PMC4527730, “A Pan-GTPase Inhibitor as a Molecular Probe” (PLoS ONE, 2015).

Columns and labels:
Ras = experiment: GTPase and effector interaction assay (Raf1-RBD beads), HeLa cell lysates; settings: HeLa cells, 10 μM, 2 h, EGF 10 ng/mL 2 min
Experimental: (§2) GST effector chimeras consisting of the minimal GTPase binding domain were p21-activated kinase p21 binding domain (PAK-PBD) for Cdc42, Raf1 Ras-binding domain (Raf1-RBD) for Ras, and Rab-interacting lysosomal protein (RILP) for Rab7 binding measurements.
(§3) Superdex peptide beads (13 μm, from GE Healthcare) derivatized with GSH were coated with effector proteins to saturation. […] The effector-coated glutathione beads (20,000 beads/assay) were incubated with 200 μL cell lysate from a single treated well for 1 h at 4°C. […] The bead associated fluorescence representing bound GTPase was quantified on an Accuri C6 flow cytometer.

Cdc42 [1] = target: T1, Cdc42 (Homo sapiens, UniProt P60953); experiment: GTPase and effector interaction assay (PAK-PBD beads), HeLa cell lysates; settings: HeLa cells, 10 μM, 2 h, EGF 10 ng/mL 2 min
Experimental: as §2, §3

RhoA = RhoA (Homo sapiens, UniProt P61586); experiment: Multiplex bead-based flow cytometry dose-response of fluorescent guanine nucleotide binding; settings: EC50 RhoA
Chain of RhoA (P61586 whole entry): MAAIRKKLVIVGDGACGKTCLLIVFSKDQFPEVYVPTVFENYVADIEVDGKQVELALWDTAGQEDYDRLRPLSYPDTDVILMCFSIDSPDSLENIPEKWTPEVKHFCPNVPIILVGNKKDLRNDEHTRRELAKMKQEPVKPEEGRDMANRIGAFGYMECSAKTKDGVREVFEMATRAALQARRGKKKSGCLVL
Experimental: (§4) Briefly, individual GST-GTPases were separately attached to glutathione microsphere beads that were labeled with varying intensity of red fluorescent dye, and subsequently combined. The buffer contains 30 mM HEPES (pH 7.2), 150 mM KCl, 20 mM NaCl, 0.1% BSA, 1 mM DTT, 1 mM EDTA and 0.1% NP-40. For Rho A and Rac1, 1 mM EDTA was replaced with 1 mM MgCl2 to stabilize the protein. […] To study whether the compounds are slow binders, BODIPY^- FL GTP was added either immediately or 2 h after compound addition. […] The curves were fitted to the sigmoidal dose-response equation using GraphPad Prism. Percent response was calculated as the ratio of (sample MCF–negative control MCF) / (positive control MCF–negative control MCF).

H-Ras G12V = H-Ras G12V (Homo sapiens, UniProt P01112, G12V); experiment: as above; settings: EC50 H-Ras G12V
Chain of H-Ras G12V (P01112 whole entry G12V): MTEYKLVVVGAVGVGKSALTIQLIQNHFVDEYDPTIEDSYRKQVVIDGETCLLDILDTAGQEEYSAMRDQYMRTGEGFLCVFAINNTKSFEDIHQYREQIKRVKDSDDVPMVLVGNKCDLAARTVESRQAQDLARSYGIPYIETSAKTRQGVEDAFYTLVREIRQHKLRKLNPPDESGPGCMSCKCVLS
Experimental: (§5) Briefly, individual GST-GTPases were separately attached to glutathione microsphere beads that were labeled with varying intensity of red fluorescent dye, and subsequently combined. The buffer contains 30 mM HEPES (pH 7.2), 150 mM KCl, 20 mM NaCl, 0.1% BSA, 1 mM DTT, 1 mM EDTA and 0.1% NP-40. […] To study whether the compounds are slow binders, BODIPY^- FL GTP was added either immediately or 2 h after compound addition. […] The curves were fitted to the sigmoidal dose-response equation using GraphPad Prism. Percent response was calculated as the ratio of (sample MCF–negative control MCF) / (positive control MCF–negative control MCF).

U937 FPRΔST cells = experiment: PE Annexin V apoptosis assay; type: cell-based; settings: 24 h or 48 h
Experimental: (§1) Cells were plated in a 96-well plate at 2000 cells per well and allowed to incubate overnight. Compound 1 or the same volume of DMSO was added on the second day. Viability was examined after 48 h. Data were collected from at least triplicate samples. Results were reported as viability treated/viability untreated (DMSO control). To evaluate apoptosis, the PE Annexin V Apoptosis Kit I was used. In 6-well plates, H358 cells were seeded at 50% confluence, while U937 FPRΔST cells were at 0.02 x 10^6 /mL. After overnight incubation, the cells were treated with compound 1 or DMSO. At 24 h or 48 h, cells were washed with PBS, and resuspended in 100 uL annexin-V binding buffer. After staining with annexin-V-FITC and 7-AAD, cells were analyzed on an Accuri C6 flow cytometer. At least 7,000 cells were measured per individual sample. The annexin^+AAD^- cells are defined as cells undergoing apoptosis. Data were collected from duplicate samples and the experiments were repeated. Results are given as the ratios of the apoptotic populations between the compound-treated and the DMSO-treated cells.

H358 cells = experiment: PE Annexin V apoptosis assay; type: cell-based; settings: 24 h or 48 h
Experimental: as §1

Rac1 Q61L = Rac1 Q61L (Homo sapiens, UniProt P63000, Q61L); experiment: Multiplex bead-based flow cytometry dose-response of fluorescent guanine nucleotide binding; settings: EC50 Rac1 Q61L
Cdc42 [2] = target: T1, Cdc42; experiment: as above
Experimental: as §5

Rab7, Cdc42 and Ras = experiment: Association and dissociation time course of BODIPY-FL GTP (real-time flow cytometry); type: binding
Experimental: GTPases were bound to glutathione-coated microsphere beads overnight and unbound GTPases were removed by washing. The association and dissociation of BODIPY^- FL GTP was analyzed with the Accuri C6 flow cytometer in real-time. The initial 30 s set the baseline fluorescence. […] When the fluorescence plateau was reached, GTP at 50 μM was added to induce BODIPY^- FL GTP dissociation. […] All the concentrations given are the final concentrations.

H-Ras = H-Ras (Homo sapiens, UniProt P01112); experiment: Multiplex bead-based flow cytometry dose-response of fluorescent guanine nucleotide binding
Chain of H-Ras (P01112 whole entry): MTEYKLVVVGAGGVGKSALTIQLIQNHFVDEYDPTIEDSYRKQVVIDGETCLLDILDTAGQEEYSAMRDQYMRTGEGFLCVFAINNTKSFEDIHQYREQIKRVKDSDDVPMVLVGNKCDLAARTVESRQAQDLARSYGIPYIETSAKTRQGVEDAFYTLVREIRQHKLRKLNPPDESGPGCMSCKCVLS
Experimental: as §5

[3] = tested on: GTPases (H-Ras, H-Ras G12V, Cdc42, Cdc42 Q61L, Rac1, Rac1 Q61L, RhoA, Rab7); experiment: Multiplex dose-response assay, statements across the GTPase panel
Experimental: as §4

[4] = tested on: EGFR degradation regulated by Rab GTPases, SCC-12F cells; experiment: EGFR degradation in SCC-12F cells; type: cell-based; settings: EGF 20 nM, 0-120 min, versus DMSO
Experimental: SCC-12F cells were seeded in 12-well plates at 0.12 x 10^6 cells/well and allowed to attach overnight. On the day of the experiment, the cells were starved in serum free medium containing 25 μg/mL cycloheximide for 2 h before compounds at different concentrations were added. The cells were treated with compound or DMSO for 0.5 h followed by the addition of ligand EGF at 20 nM. At time 0, 15, 30, 60, and 120 min, the suspension medium was removed and the cells were quickly washed with cold PBS and frozen at -80°C. For electrophoresis and blotting, CellLyticM Cell Lysis buffer containing protease inhibitor cocktails was added to the frozen cells and the protein concentrations were quantified using the Bradford assay. For SDS-PAGE, 10 μg of protein was loaded on each lane. After transblotting, the nitrocellulose membrane was probed with Anti-EGFR and Anti-actin primary antibody and secondary goat anti-rabbit IgG antibody with conjugated peroxidase. Actin served as a loading control. After adding the substrate SuperSignal West Dura, specific band signal was detected with ChemiDoc XRS+ molecular imager and the intensity was quantified using Image Lab software. Experiments were carried out either in duplicate and repeated or in triplicate. Results are given as the ratios of EGFR/actin at time t and EGFR/actin at time 0.

[5] = tested on: EGFR degradation, HeLa cells overexpressing Rab7 wild type; experiment: EGFR degradation in Rab7 overexpressing HeLa cells; type: cell-based; settings: HeLa cells overexpressing Rab7, 100 μM, 3 h, 0-180 min
Experimental: The EGFR degradation assay in HeLa cells was carried out in a similar way to that in SCC-12F cells but with modifications. […] Cell lysates were prepared at various time points and immunoblotted for total EGFR while actin served as a loading control. Experiments were carried out in triplicate.

[6] = tested on: phospho-Erk 1/2 in H358 cells; experiment: Western blotting of Erk1/2 phosphorylation downstream of Ras signaling; type: cell-based; settings: 10 μM, 1 h; complete medium or FBS stimulated after starvation
Experimental: H358 lung cancer cells were seeded at 10^6 cells/well in 6–well plates. […] Then cells were stimulated with 10% FBS for 5 min and lysed in 150 μl RIPA buffer. Cell lysates were processed for SDS-PAGE, transferred to PVDF membranes and probed with a monoclonal antibody directed against phospho-Erk 1/2 (from Cell Signaling) and a monoclonal antibody directed against Erk 1/2 (from Cell Signaling) followed by an HRP labeled ECL anti-mouse IgG (from GE Healthcare).

[7] = concentration dependence on BODIPY-FL GDP
[8] = BODIPY-FL GTP binding, 2 h at 4°C

T1 sequence (P60953 whole entry): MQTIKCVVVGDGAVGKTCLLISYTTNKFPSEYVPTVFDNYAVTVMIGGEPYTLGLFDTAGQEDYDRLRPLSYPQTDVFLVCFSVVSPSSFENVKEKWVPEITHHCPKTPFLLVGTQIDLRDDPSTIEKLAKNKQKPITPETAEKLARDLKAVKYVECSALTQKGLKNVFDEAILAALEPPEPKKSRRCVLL

CC1(C)Cc2c(sc(NC(=S)NC(=O)c3ccccc3)c2C(=O)O)CO1 [Compound 1]
level of active Ras after EGF stimulation (Ras): dramatically blunted | level of active Cdc42 after EGF stimulation (Cdc42 [1]): below the basal levels | EC50 (RhoA; BODIPY-FL GTP binding, 2 h at 4°C, 1 mM MgCl2): 0.062 ± 0.049 µM | EC50 (RhoA; [7]): 0.1 µM | EC50 (H-Ras G12V; [8]): 0.052 ± 0.044 µM | EC50 (H-Ras G12V; [7]): 0.26 µM | apoptosis increase (U937 FPRΔST cells): absent | apoptosis (H358 cells): time-dependent apoptosis increase | EC50 (Rac1 Q61L; [8]): 0.075 ± 0.059 µM | EC50 (Rac1 Q61L; [7]): 0.12 µM | EC50 (Cdc42 [2]; EC50 Cdc42, BODIPY-FL GTP binding, 2 h at 4°C): 1.09 ± 1.62 µM | EC50 (Cdc42 [2]; EC50 Cdc42, concentration dependence on BODIPY-FL GDP): 0.42 µM | EC50 (Cdc42 [2]; EC50 Cdc42_1, with 2 h incubation before BODIPY-FL GTP, Cdc42 purified in house): 2.06 ± 0.038 µM | EC50 (Cdc42 [2]; EC50 Cdc42_1, without incubation before BODIPY-FL GTP, Cdc42 purified in house): 2.23 ± 1.47 µM | EC50 (Cdc42 [2]; EC50 Cdc42_2, with 2 h incubation before BODIPY-FL GTP, Cdc42 from Cytoskeleton): 3.71 ± 0.039 µM | EC50 (Cdc42 [2]; EC50 Cdc42_2, without incubation before BODIPY-FL GTP, Cdc42 from Cytoskeleton): 4.46 ± 2.63 µM | covalent bond formation with GTPases / reversibility (Rab7, Cdc42 and Ras; 50 μM overnight, extensive washing): did not form a covalent bond | dissociation of pre-bound BODIPY-FL GTP (Rab7, Cdc42 and Ras; compound 50 μM added at plateau): able to induce dissociation | binding of BODIPY-FL GTP in the presence of compound (Rab7, Cdc42 and Ras; compound 50 μM, BODIPY-FL GTP 100 nM): decreased | EC50 (H-Ras; EC50 H-Ras, BODIPY-FL GTP binding, 2 h at 4°C): 0.16 ± 0.16 µM | EC50 (H-Ras; EC50 H-Ras, concentration dependence on BODIPY-FL GDP): 0.24 µM | EC50 (H-Ras; EC50 Ras, with 2 h incubation before BODIPY-FL GTP): 0.1 ± 0.0035 µM | EC50 (H-Ras; EC50 Ras, without incubation before BODIPY-FL GTP): 0.13 ± 0.0026 µM | inhibitory activity on BODIPY-FL GTP binding across all GTPases tested (in words) ([3]; SAR versus compound 1): inhibited BODIPY^- FL GTP binding to all the GTPases tested in a dose-dependent manner | slow binding behaviour ([3]; two-hour incubation or no incubation before BODIPY-FL GTP): not a slow binder | EGFR degradation [4]: delayed EGFR degradation | EGFR degradation [5]: delayed EGFR degradation | phosphorylation level of Erk 1/2 [6]: decreased
